# Measured values published in ChEMBL document CHEMBL4304804, “Synthesis and biological evaluation of calycanthaceous alkaloid analogs” (Bioorg Med Chem, 2019).
# Activity calls are given as the source filed them. No cut-off for these calls is given here.
# Tests used:
# Curvularia lunata [1] = assay: Antifungal activity against Curvularia lunata assessed as reduction in fungal cell growth incubated for 48 hrs by serial dilution method; format: functional
# Verticillium dahliae [2] = assay: Antifungal activity against Verticillium dahliae assessed as reduction in fungal cell growth at 31.25 ug/ml incubated for 48 hrs by serial dilution method relative to control; format: functional
# Verticillium dahliae [3] = assay: Antifungal activity against Verticillium dahliae assessed as reduction in fungal cell growth incubated for 48 hrs by serial dilution method; format: functional
# Ralstonia solanacearum [4] = assay: Antibacterial activity against Ralstonia solanacearum assessed as reduction in bacterial cell growth incubated for 24 hrs by filter paper assay; format: functional
# Verticillium dahliae [5] = assay: Antifungal activity against Verticillium dahliae assessed as reduction in fungal cell growth at 250 ug/ml incubated for 48 hrs by serial dilution method relative to control; format: functional
# Staphylococcus aureus = assay: Antibacterial activity against Staphylococcus aureus assessed as reduction in bacterial cell growth incubated for 24 hrs by filter paper assay; format: functional
# Verticillium dahliae [6] = assay: Antifungal activity against Verticillium dahliae assessed as reduction in fungal cell growth at 125 ug/ml incubated for 48 hrs by serial dilution method relative to control; format: functional
# Candida [7] = assay: Antifungal activity against […] assessed as reduction in fungal cell growth incubated for 48 hrs by serial dilution method; format: functional
# Cytospora = assay: Antifungal activity against Cytospora juglandis assessed as reduction in fungal cell growth incubated for 48 hrs by serial dilution method; format: functional
# Aspergillus flavus = assay: Antifungal activity against Aspergillus flavus assessed as reduction in fungal cell growth incubated for 48 hrs by serial dilution method; format: functional
# Acetylcholinesterase = Acetylcholinesterase (Electrophorus electricus, UniProt O42275); assay: Inhibition of electric eel AChE by Ellman's colorimetry
# Sequence of Acetylcholinesterase (O42275 whole entry): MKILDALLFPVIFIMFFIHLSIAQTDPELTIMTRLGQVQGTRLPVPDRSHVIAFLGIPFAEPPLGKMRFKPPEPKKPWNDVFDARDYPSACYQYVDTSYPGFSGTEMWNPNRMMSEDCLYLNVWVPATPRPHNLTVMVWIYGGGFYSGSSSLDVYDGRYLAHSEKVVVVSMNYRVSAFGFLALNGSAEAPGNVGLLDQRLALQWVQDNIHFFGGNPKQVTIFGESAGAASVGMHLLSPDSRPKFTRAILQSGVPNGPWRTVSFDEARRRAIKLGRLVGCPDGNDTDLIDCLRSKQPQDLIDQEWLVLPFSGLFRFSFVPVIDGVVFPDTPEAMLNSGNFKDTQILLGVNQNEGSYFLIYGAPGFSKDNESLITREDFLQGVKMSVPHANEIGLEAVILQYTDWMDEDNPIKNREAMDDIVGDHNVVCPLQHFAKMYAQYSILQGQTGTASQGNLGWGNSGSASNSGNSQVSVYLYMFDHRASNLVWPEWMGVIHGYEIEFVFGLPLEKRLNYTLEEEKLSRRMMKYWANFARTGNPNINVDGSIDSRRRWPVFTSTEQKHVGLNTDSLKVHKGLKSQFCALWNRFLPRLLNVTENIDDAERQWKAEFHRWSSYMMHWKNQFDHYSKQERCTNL
# Bacillus cereus = assay: Antibacterial activity against Bacillus cereus assessed as reduction in bacterial cell growth incubated for 24 hrs by filter paper assay; format: functional
# [8] = test system: Fusarium oxysporum f. sp. vasinfectum; assay: Antifungal activity against Fusarium oxysporum sp. vasinfectum assessed as reduction in fungal cell growth incubated for 48 hrs by serial dilution method; format: functional
# Candida tropicalis = assay: Antifungal activity against Candida tropicalis assessed as reduction in fungal cell growth incubated for 48 hrs by serial dilution method; format: functional
# [9] = test system: Colletotrichum orbiculare; assay: Antifungal activity against Colletotrichum orbiculare assessed as reduction in fungal cell growth incubated for 48 hrs by serial dilution method; format: functional
# Verticillium dahliae [10] = assay: Antifungal activity against Verticillium dahliae assessed as reduction in fungal cell growth at 62.5 ug/ml incubated for 48 hrs by serial dilution method relative to control; format: functional
# Fusarium oxysporum = assay: Antifungal activity against Fusarium oxysporum assessed as reduction in fungal cell growth incubated for 48 hrs by serial dilution method; format: functional
# Aspergillus niger = assay: Antifungal activity against Aspergillus niger assessed as reduction in fungal cell growth incubated for 48 hrs by serial dilution method; format: functional
# Escherichia coli = assay: Antibacterial activity against Escherichia coli assessed as reduction in bacterial cell growth incubated for 24 hrs by filter paper assay; format: functional
# Pseudomonas aeruginosa = assay: Antibacterial activity against Pseudomonas aeruginosa assessed as reduction in bacterial cell growth incubated for 24 hrs by filter paper assay; format: functional
# Penicillium citrinum = assay: Antifungal activity against Penicillium citrinum assessed as reduction in fungal cell growth incubated for 48 hrs by serial dilution method; format: functional
# Cryptococcus neoformans = assay: Antifungal activity against Cryptococcus neoformans assessed as reduction in fungal cell growth incubated for 48 hrs by serial dilution method; format: functional
# Ralstonia solanacearum [11] = assay: Antibacterial activity against Ralstonia solanacearum assessed as reduction in bacterial cell growth at 500 ug/ml incubated for 24 hrs by filter paper assay relative to control; format: functional
# Candida [12] = assay: Antifungal activity against […] assessed as reduction in fungal spore germination at 500 ug/ml relative to control; format: functional
# [13] = target: Acetylcholinesterase (Electrophorus electricus) (UniProt O42275); assay: Inhibition of electric eel AChE by at 1 mg/ml Ellman's colorimetry relative to control
# Sequence of Acetylcholinesterase (Electrophorus electricus) (O42275 24-633 limits assumed): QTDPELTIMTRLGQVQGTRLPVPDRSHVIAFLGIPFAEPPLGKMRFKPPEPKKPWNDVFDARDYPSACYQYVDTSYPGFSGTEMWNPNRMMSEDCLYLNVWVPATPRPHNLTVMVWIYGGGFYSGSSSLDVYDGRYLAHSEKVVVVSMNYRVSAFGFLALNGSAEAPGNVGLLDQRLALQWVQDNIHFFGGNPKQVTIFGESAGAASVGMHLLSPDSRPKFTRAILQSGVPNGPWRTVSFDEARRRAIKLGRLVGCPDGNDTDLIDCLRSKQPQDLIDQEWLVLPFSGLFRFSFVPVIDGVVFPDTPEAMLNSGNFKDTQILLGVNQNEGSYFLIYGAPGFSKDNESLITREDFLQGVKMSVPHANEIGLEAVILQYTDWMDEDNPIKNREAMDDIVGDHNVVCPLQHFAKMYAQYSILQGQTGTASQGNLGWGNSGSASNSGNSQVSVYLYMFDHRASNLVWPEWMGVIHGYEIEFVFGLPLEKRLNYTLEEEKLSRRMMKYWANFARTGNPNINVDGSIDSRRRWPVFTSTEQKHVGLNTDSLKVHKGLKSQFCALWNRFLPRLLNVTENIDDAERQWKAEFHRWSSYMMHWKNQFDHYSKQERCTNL
# Curvularia lunata [14] = assay: Antifungal activity against Curvularia lunata assessed as reduction in fungal spore germination at 250 ug/ml relative to control; format: functional
# Curvularia lunata [15] = assay: Antifungal activity against Curvularia lunata assessed as reduction in fungal cell growth at 125 ug/ml incubated for 48 hrs by serial dilution method relative to control; format: functional
# Curvularia lunata [16] = assay: Antifungal activity against Curvularia lunata assessed as reduction in fungal cell growth at 62.5 ug/ml incubated for 48 hrs by serial dilution method relative to control; format: functional
# Curvularia lunata [17] = assay: Antifungal activity against Curvularia lunata assessed as reduction in fungal cell growth at 250 ug/ml incubated for 48 hrs by serial dilution method relative to control; format: functional
# Curvularia lunata [18] = assay: Antifungal activity against Curvularia lunata assessed as reduction in fungal spore germination at 125 ug/ml relative to control; format: functional
SMILES,MIC (Curvularia lunata [1]),MIC (Verticillium dahliae [3]),MIC (Ralstonia solanacearum [4]),MIC (Staphylococcus aureus),MIC (Candida [7]),MIC (Cytospora),MIC (Aspergillus flavus),IC50 (Acetylcholinesterase),MIC (Bacillus cereus),MIC [8],MIC (Candida tropicalis),MIC [9],MIC (Fusarium oxysporum),MIC (Aspergillus niger),MIC (Escherichia coli),MIC (Pseudomonas aeruginosa),MIC (Penicillium citrinum),MIC (Cryptococcus neoformans),inhibition [13],also measured
CCCCCCCC(=O)N1CCC2(Cc3ccccc3C)c3ccccc3N(Cc3ccccc3C)C12 (stereo unspecified),125 µg/mL,31.2 µg/mL,62.5 µg/mL,125 µg/mL,31.2 µg/mL,125 µg/mL,250 µg/mL,16500 nM,62.5 µg/mL,250 µg/mL,125 µg/mL,250 µg/mL,125 µg/mL,250 µg/mL,125 µg/mL,125 µg/mL,250 µg/mL,62.5 µg/mL,,inhibition at 31.25 µg/mL (Verticillium dahliae [2]): 46.2%; inhibition at 250 µg/mL (Verticillium dahliae [5]): 67.7%; inhibition at 125 µg/mL (Verticillium dahliae [6]): 63.4%; inhibition at 62.5 µg/mL (Verticillium dahliae [10]): 47%
CCCCCCCC(=O)N1CCCC2(O)c3ccccc3N(C)C12 (stereo unspecified),125 µg/mL,62.5 µg/mL,31.2 µg/mL,62.5 µg/mL,inactive,125 µg/mL,125 µg/mL,363 nM,250 µg/mL,250 µg/mL,inactive,250 µg/mL,inactive,250 µg/mL,62.5 µg/mL,250 µg/mL,inactive,125 µg/mL,,inhibition at 500 µg/mL (Ralstonia solanacearum [11]): 100%
CCCCCCCC(=O)N1CCC2(Cc3cccc(C)c3)c3ccccc3N(Cc3cccc(C)c3)C12 (stereo unspecified),125 µg/mL,62.5 µg/mL,62.5 µg/mL,125 µg/mL,31.2 µg/mL,125 µg/mL,250 µg/mL,87900 nM,62.5 µg/mL,250 µg/mL,125 µg/mL,250 µg/mL,125 µg/mL,250 µg/mL,250 µg/mL,125 µg/mL,250 µg/mL,125 µg/mL,,inhibition at 500 µg/mL (Candida [12]): 87.5%
Cc1ccc(C(=O)N2CCCC3(O)c4ccccc4N(C)C23)cc1 (stereo unspecified),inactive,250 µg/mL,inactive,inactive,inactive,inactive,inactive,2850 nM,inactive,inactive,inactive,inactive,inactive,inactive,inactive,250 µg/mL,inactive,inactive,> 80%,
CCC(=O)N1CCCC2(O)c3ccccc3N(C)C12 (stereo unspecified),inactive,250 µg/mL,31.2 µg/mL,inactive,inactive,inactive,inactive,0.0384 nM,inactive,inactive,inactive,inactive,inactive,inactive,inactive,250 µg/mL,inactive,inactive,> 80%,
CCCCCCC(=O)N1CCCC2(O)c3ccccc3N(C)C12 (stereo unspecified),62.5 µg/mL,62.5 µg/mL,62.5 µg/mL,62.5 µg/mL,inactive,125 µg/mL,inactive,4200 nM,250 µg/mL,250 µg/mL,250 µg/mL,250 µg/mL,250 µg/mL,250 µg/mL,125 µg/mL,250 µg/mL,inactive,125 µg/mL,,inhibition at 250 µg/mL (Curvularia lunata [14]): 43.7%; inhibition at 125 µg/mL (Curvularia lunata [15]): 31.3%; inhibition at 62.5 µg/mL (Curvularia lunata [16]): 15.5%; inhibition at 250 µg/mL (Curvularia lunata [17]): 77.7%; inhibition at 125 µg/mL (Curvularia lunata [18]): 76.2%
CC(C)C(=O)N1CCCC2(O)c3ccccc3N(C)C12 (stereo unspecified),inactive,250 µg/mL,inactive,inactive,inactive,inactive,inactive,510 nM,inactive,inactive,inactive,inactive,inactive,inactive,inactive,250 µg/mL,inactive,inactive,> 80%,
Cc1ccccc1CN1c2ccccc2C2(Cc3ccccc3C)CCN(S(=O)(=O)c3ccccc3)C12 (stereo unspecified),inactive,125 µg/mL,inactive,inactive,250 µg/mL,250 µg/mL,250 µg/mL,275 nM,125 µg/mL,250 µg/mL,inactive,250 µg/mL,250 µg/mL,250 µg/mL,inactive,inactive,inactive,inactive,> 80%,inhibition (Curvularia lunata [18]): Active
CN1c2ccccc2C2(O)CCCN(C(=O)c3ccccc3)C12 (stereo unspecified),inactive,inactive,62.5 µg/mL,250 µg/mL,inactive,inactive,inactive,259 nM,inactive,inactive,250 µg/mL,inactive,inactive,inactive,250 µg/mL,250 µg/mL,inactive,inactive,> 80%,
CN1c2ccccc2C2(O)CCCN(C(=O)c3ccc(F)cc3)C12 (stereo unspecified),125 µg/mL,250 µg/mL,125 µg/mL,250 µg/mL,inactive,250 µg/mL,250 µg/mL,0.306 nM,inactive,250 µg/mL,250 µg/mL,250 µg/mL,250 µg/mL,inactive,250 µg/mL,250 µg/mL,250 µg/mL,inactive,> 80%,
CCCCCC(=O)N1CCCC2(O)c3ccccc3N(C)C12 (stereo unspecified),250 µg/mL,125 µg/mL,125 µg/mL,125 µg/mL,inactive,125 µg/mL,inactive,7570 nM,inactive,250 µg/mL,inactive,250 µg/mL,250 µg/mL,250 µg/mL,250 µg/mL,250 µg/mL,inactive,250 µg/mL,> 80%,
Cc1cccc(CN2c3ccccc3C3(Cc4cccc(C)c4)CCN(S(=O)(=O)c4ccccc4)C23)c1 (stereo unspecified),inactive,31.2 µg/mL,inactive,inactive,250 µg/mL,250 µg/mL,250 µg/mL,2810 nM,125 µg/mL,250 µg/mL,125 µg/mL,250 µg/mL,250 µg/mL,250 µg/mL,250 µg/mL,125 µg/mL,inactive,inactive,> 80%,
